pEC50: −log10 of the molar value.
What was measured:
[1] = tested on: 229E virus; assay: organism not typed; assay type: cell-based; conditions: Huh-7, read-out: Antiviral 229E EC50 (μM)
[2] = tested on: OC43 virus; assay: microbe, parasite or virus in culture; assay type: cell-based; conditions: Betacoronavirus 1, OC43, Huh-7, read-out: Antiviral OC43 EC50 (μM)
[3] = in vitro; conditions: human, microsomes, pH 7.4
[4] = biological target: MERS Mpro (Middle East respiratory syndrome-related coronavirus (isolate United Kingdom/H123990006/2012) (MERS-CoV) (Betacoronavirus England 1), UniProt K9N7C7); assay: biochemical
Chain of MERS Mpro (K9N7C7 3248-3553 limits assumed): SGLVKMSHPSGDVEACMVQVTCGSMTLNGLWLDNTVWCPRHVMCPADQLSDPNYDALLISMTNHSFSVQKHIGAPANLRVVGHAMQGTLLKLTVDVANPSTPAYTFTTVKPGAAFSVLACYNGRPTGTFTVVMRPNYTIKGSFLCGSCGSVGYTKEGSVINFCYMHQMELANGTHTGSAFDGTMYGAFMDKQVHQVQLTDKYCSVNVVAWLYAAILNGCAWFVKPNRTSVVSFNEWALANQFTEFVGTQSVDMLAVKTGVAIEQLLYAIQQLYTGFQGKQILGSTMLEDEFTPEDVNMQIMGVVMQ

[5] = biological target: SARS-CoV-1 Mpro (Severe acute respiratory syndrome coronavirus (SARS-CoV), UniProt P0C6X7); assay type: biochemical
[6] = tested on: SARS-CoV-2 (strain USA-WA1/2020); assay: microbe, parasite or virus in culture; assay type: cell-based; conditions: Severe acute respiratory syndrome coronavirus 2; HeLa-ACE2 cells; read-out: Antiviral CoV-2 EC50
[7] = biological target: 229E Mpro (Human coronavirus 229E (HCoV-229E), UniProt P0C6X1); assay type: biochemical
Chain of 229E Mpro (P0C6X1 2966-3267 limits assumed): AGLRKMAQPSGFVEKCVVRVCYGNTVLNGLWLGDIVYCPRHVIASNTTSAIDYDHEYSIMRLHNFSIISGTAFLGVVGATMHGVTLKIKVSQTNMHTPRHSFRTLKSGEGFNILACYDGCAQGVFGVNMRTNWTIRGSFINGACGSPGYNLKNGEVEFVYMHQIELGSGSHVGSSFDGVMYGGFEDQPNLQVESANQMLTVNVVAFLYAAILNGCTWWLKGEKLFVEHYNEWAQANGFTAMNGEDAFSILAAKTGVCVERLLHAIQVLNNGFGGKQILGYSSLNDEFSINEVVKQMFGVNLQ

[8] = biological target: OC43 Mpro (Human coronavirus OC43 (HCoV-OC43), UniProt P0C6X6); assay type: biochemical
Chain of OC43 Mpro (P0C6X6 3247-3549 limits assumed): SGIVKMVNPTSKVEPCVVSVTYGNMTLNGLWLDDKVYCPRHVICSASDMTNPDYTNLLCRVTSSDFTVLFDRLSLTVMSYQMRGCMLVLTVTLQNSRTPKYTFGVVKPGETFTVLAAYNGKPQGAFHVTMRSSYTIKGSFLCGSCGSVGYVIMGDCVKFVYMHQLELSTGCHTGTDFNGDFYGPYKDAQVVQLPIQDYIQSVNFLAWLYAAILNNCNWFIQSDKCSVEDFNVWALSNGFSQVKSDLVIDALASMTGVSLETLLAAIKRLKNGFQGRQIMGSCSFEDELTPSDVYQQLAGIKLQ

[9] = in vitro; conditions: PAMPA
[10] = biological target: SARS-CoV-2 Mpro (Severe acute respiratory syndrome coronavirus 2 (2019-nCoV) (SARS-CoV-2), UniProt P0DTD1); assay type: biochemical
[11] = in vitro; conditions: rat, microsomes, pH 7.4

Row | SMILES | EC50 [1] [µM] | EC50 [2] [µM] | CLint scaled [3] [L/h/kg] | pEC50 [4] | pEC50 [5] | pEC50 [6] | pEC50 [7] | pEC50 [8] | Papp [9] [nm/s] | pEC50 [10] | CLint scaled [11] [L/h/kg]
1 | O=C(N[C@@H]1CCN(c2c(C(=O)N3CCOCC3)cc(Br)cc2C(F)(F)F)C1)c1cc(=O)[nH]c2c(F)c(F)ccc12 [Compound 51] | 0.0475 | 0.0584 | 7.5 | 9.17 | 8.91 | 7.80 | 8.45 | 8.96 | 145 | 9.38 | 26.8
2 | Cc1cc(C(=O)N2CCOCC2)c(N2C[C@H](NC(=O)c3cc(=O)[nH]c4c(F)cc(F)cc34)CC2=O)c(C2CC2)c1 [Compound 74] | 0.248 | 0.429 | < 2 | 8.89 | 8.84 | 7.28 | 8.14 | 8.47 | 35.4 | 9.23 | < 3.4
3 | O=C(N[C@@H]1CCN(c2c(C(=O)N3CCOCC3)cc(Br)cc2C(F)(F)F)C1)c1cc(=O)[nH]c2c(Cl)cccc12 [Compound 58] | 0.983 | 0.864 | 21.9 | 9.04 | 8.97 | – | 7.61 | 8.23 | 179 | 9.38 | 60.1
4 | O=C(N[C@@H]1CCN(c2c(C(=O)N3CCOCC3)cc(Br)cc2C(F)(F)F)C1)c1cc(=O)[nH]c2c(F)cc(F)cc12 [Compound 49] | 0.0959 | 0.168 | 11.4 | 9.02 | 8.96 | 7.95 | 8.33 | 8.79 | 156 | 9.37 | 34.4
5 | Cc1cc(C(=O)N2CCOCC2)c(N2C[C@H](NC(=O)c3cc(=O)[nH]c4c(F)c(F)ccc34)C[C@H]2C)c(C2CC2)c1 [Compound 83] | 0.029 | 0.023 | 66.9 | 8.86 | 8.82 | – | 8.75 | 9.38 | 157 | 9.38 | 85.7
6 | O=C(N[C@@H]1CCN(c2c(C(=O)N3CCOCC3)cc(Br)cc2C(F)(F)F)C1)c1cc(=O)[nH]c2ccccc12 [Compound 56] | 0.062 | 0.014 | 9.4 | 9.04 | 8.35 | 7.74 | 8.74 | 9.13 | 109 | 9.35 | 24
7 | O=C(N[C@@H]1CCN(c2c(C(=O)N3CCOCC3)cc(Br)cc2C(F)(F)F)C1)c1c(F)c(=O)[nH]c2c(F)cccc12 [Compound 48] | 0.044 | 0.031 | 4.9 | 9.05 | 8.94 | 8.24 | 8.84 | 9.36 | 179 | 9.37 | 12.6
8 | N#Cc1cc(C(=O)N2CCOCC2)c(N2C[C@H](NC(=O)c3cc(=O)[nH]c4c(F)c(F)ccc34)CC2=O)c(C(F)(F)F)c1 [Compound 34] | 3.37 | 7.32 | < 1.6 | 8.64 | 8.53 | – | 7.38 | 7.04 | 10.4 | 8.95 | < 2.7
9 | COc1cccc2[nH]c(=O)cc(C(=O)N[C@@H]3CCN(c4c(Cl)cc(C)cc4C(=O)N4CCOCC4)C3)c12 [Compound 85] | 0.382 | 0.21 | 6.2 | 8.81 | 8.50 | 6.56 | 8.04 | 8.64 | 31.9 | 8.85 | 17.3
10 | N#Cc1cc(C(=O)N2CCOCC2)c(N2CC[C@@H](NC(=O)c3c(F)c(=O)[nH]c4c(F)cccc34)C2)c(C(F)(F)F)c1 [Compound 5] | 0.039 | 0.047 | < 2.2 | 8.90 | 8.82 | 7.99 | 8.84 | 8.90 | 72.3 | 9.32 | < 3.6
11 | O=C(N[C@@H]1CCN(c2c(C(=O)N3CCOCC3)cc(Br)cc2C(F)(F)F)C1)c1cc(C(F)F)[nH]c(=O)c1 [Compound 61] | 63.1 | 11.4 | 3.1 | 8.49 | 8.34 | 6.38 | 6.44 | 7.28 | 157 | 8.71 | 5
12 | N#Cc1cc(C(=O)N2CCOCC2)c(N2CC[C@@H](NC(=O)c3cc(=O)[nH]c4c(F)c(F)ccc34)C2)c(C(F)(F)F)c1 [Compound 8] | 0.25 | 0.88 | < 2.1 | 8.83 | 8.82 | 7.72 | 8.48 | 8.33 | 51.1 | 9.37 | < 3.6
13 | COc1cccc2[nH]c(=O)cc(C(=O)N[C@@H]3CCN(c4c(C(=O)N5CCOCC5)cc(F)cc4C4CC4)C3)c12 [Compound 79] | 0.0284 | 0.02 | 1.9 | 8.82 | – | 7.41 | 8.62 | 9.12 | 29.8 | 9.38 | 14.1
14 | O=C(N[C@@H]1CCN(c2c(C(=O)N3CCOCC3)cc(Br)cc2C(F)(F)F)C1)c1c(F)c(=O)[nH]c2c(F)c(F)ccc12 [Compound 50] | 0.319 | 0.303 | 11.4 | 8.72 | 8.65 | 7.94 | 8.35 | 8.92 | 162 | 9.30 | 9.9
15 | COc1cccc2[nH]c(=O)cc(C(=O)N[C@@H]3CCN(c4c(C(=O)N5CCOCC5)cc(C#N)cc4C(F)(F)F)C3)c12 [Compound 9] | 0.11 | 0.28 | < 2.1 | 8.74 | 9.10 | 6.50 | 8.70 | 8.55 | 3.4 | 9.33 | < 3.5
16 | O=C(N[C@@H]1CCN(c2c(C(=O)N3CCOCC3)cc(Cl)cc2C(F)(F)F)C1)c1cc(=O)[nH]c2c(F)cccc12 [Compound 36] | 0.0578 | 0.0487 | 5.7 | 8.99 | 8.84 | 8.04 | 8.62 | 9.08 | 143 | 9.31 | 24.2
17 | COc1cccc2[nH]c(=O)cc(C(=O)N[C@@H]3CCN(c4c(C(=O)N5CCOCC5)cc(C)cc4C4CC4)C3)c12 [Compound 81] | 0.073 | 0.013 | 3.9 | 8.64 | 8.86 | 7.74 | 8.67 | 9.18 | 28.1 | 9.31 | 13.6
18 | COc1cccc2[nH]c(=O)cc(C(=O)N[C@@H]3CCN(c4c(C(=O)N5CCOCC5)cc(Cl)nc4C4CC4)C3)c12 [Compound 82] | 1.17 | 0.083 | 3.4 | 8.54 | – | 6.62 | 7.87 | 8.79 | 31 | 9.00 | 3.1
19 | CN1CCN(C(=O)c2cc(C#N)cc(C(F)(F)F)c2N2CC[C@@H](NC(=O)c3cc(=O)[nH]c4c(F)cccc34)C2)CC1 [Compound 14] | 0.15 | 0.19 | < 1.8 | 8.88 | 8.56 | 7.89 | 8.68 | 8.70 | 27.3 | 9.34 | 3.4
20 | C[C@@H]1C[C@@H](NC(=O)c2cc(=O)[nH]c3c(F)c(F)ccc23)CN1c1c(C(=O)N2CCOCC2)cc(C#N)cc1C(F)(F)F [Compound 31] | 0.073 | 0.141 | 5.5 | 8.71 | – | 8.06 | 8.55 | 8.75 | 118 | 9.30 | 27.4

— patent US20240158368A1, “Pyrrolidine Main Protease Inhibitors as Antiviral Agents” (AbbVie Inc., priority 2022, published 2024)
